Measurements published in US20120070411A1, “SUBSTITUTED NUCLEOTIDE ANALOGS” (Alios BioPharma, Inc., priority 2010, published 2012).
Read-outs that look alike come from different tables or passages of the source.

Test system: Huh-7 cells containing the self-replicating, subgenomic HCV replicon
Test: HCV replicon assay (luciferase reporter, 72 h)
Format: cell-based
Settings: read-out: HCV Replicon Activity (EC50)
Method: Huh-7 cells containing the self-replicating, subgenomic HCV replicon with a stable luciferase (LUC) reporter were cultured in Dulbecco's modified Eagle's medium (DMEM) containing 2 mM L-glutamine and supplemented with 10% heat-inactivated fetal bovine serum (FBS), 1% penicillin-streptomyocin, 1% nonessential amino acids, and 0.5 mg/ml G418.
On the first day, 5,000 HCV replicon cells were plated per well in a 96-well plate. On the following day, test compounds were solubilized in 100% DMSO to 100× the desired final testing concentration. Each compound was then serially diluted (1:3) up to 9 different concentrations. Compounds in 100% DMSO are reduced to 10% DMSO by diluting 1:10 in cell culture media. The compounds were diluted to 10% DMSO with cell culture media, which were used to dose the HCV replicon cells in 96-well format. The final DMSO concentration was 1%. The HCV replicon cells were incubated at 37° C. for 72 hours. At 72 hours, cells were processed when the cells are still subconfluent. Compounds that reduce the LUC signal are determined by Bright-Glo Luciferase Assay (Promega, Madison, Wis.). % Inhibition was determined for each compound concentration in relation to the control cells (untreated HCV replicon) to calculate the EC50.

CCC(=O)O[C@H]1[C@@H](OC(=O)CC)[C@H](n2cnc3c(N)ncnc32)O[C@@H]1[C@H](C)OP(=O)(N[C@@H](C)C(=O)OC(C)C)Oc1ccccc1 (stereo partly drawn) [A14, 2′,3′-O-dipropionyl-5′(S)—C-methyladenosine 5′-[phenyl(isopropoxy-L-alaninyl)]phosphate]
EC50 (Hepatitis C virus, Huh-7, 72 h): < 1 µM

COC(=O)[C@H](C)NP(=O)(Oc1ccccc1)O[C@@H](C)[C@H]1O[C@@H](n2cnc3c(N)ncnc32)[C@H](O)[C@@H]1O (stereo partly drawn) [A15, 5′(S)—C-methyladenosine 5′-[phenyl(methoxy-L-alaninyl)]phosphate]
EC50 (Hepatitis C virus, Huh-7, 72 h): < 30 µM

COC(=O)[C@H](C)NP(=O)(Oc1ccccc1)O[C@@H](C)[C@H]1O[C@@H](n2cnc3c(N)ncnc32)[C@@H]2OC(=O)O[C@@H]21 (stereo partly drawn) [A16, 2′,3′-O-carbonyl-5′(S)—C-methyladenosine 5′-[phenyl(methoxy-L-alaninyl)]phosphate]
EC50 (Hepatitis C virus, Huh-7, 72 h): < 30 µM

CCC(=O)O[C@H]1[C@@H](OC(=O)CC)[C@H](n2cnc3c(N)ncnc32)O[C@@H]1[C@H](C)OP(=O)(N[C@@H](C)C(=O)OCC(C)(C)C)Oc1ccccc1 (stereo partly drawn) [A17, 2′,3′-O-dipropionyl-5′(S)—C-methyladenosine 5′-[phenyl(neopentoxy-L-alaninyl)]phosphate]
EC50 (Hepatitis C virus, Huh-7, 72 h): < 1 µM

CCOC(=O)[C@H](C)NP(=O)(Oc1cccc2ccccc12)O[C@@H](C)[C@H]1O[C@@H](n2cnc3c(N)ncnc32)[C@H](O)[C@@H]1O (stereo partly drawn) [A19, 5′(S)—C-methyladenosine 5′-[1-naphthyl(ethoxy-L-alaninyl)]phosphate]
EC50 (Hepatitis C virus, Huh-7, 72 h): < 1 µM

CC(C)OC(=O)[C@H](C)NP(=O)(Oc1cccc2ccccc12)O[C@@H](C)[C@H]1O[C@@H](n2cnc3c(N)ncnc32)[C@H](O)[C@@H]1O (stereo partly drawn) [A20, 5′(S)—C-methyladenosine 5′-[1-naphthyl(isopropoxy-L-alaninyl)]phosphate]
EC50 (Hepatitis C virus, Huh-7, 72 h): < 1 µM

C[C@H](NP(=O)(Oc1cccc2ccccc12)O[C@@H](C)[C@H]1O[C@@H](n2cnc3c(N)ncnc32)[C@H](O)[C@@H]1O)C(=O)OCc1ccccc1 (stereo partly drawn) [A21, 5′(S)—C-methyladenosine 5′-[1-naphthyl(benzyloxy-L-alaninyl)]phosphate]
EC50 (Hepatitis C virus, Huh-7, 72 h): < 1 µM

CCC(=O)O[C@H]1[C@@H](OC(=O)CC)[C@H](n2cnc3c(N)ncnc32)O[C@@H]1[C@H](C)OP(=O)(N[C@@H](C)C(=O)OC(C)C)Oc1cccc2ccccc12 (stereo partly drawn) [A22, 2′,3′-O-dipropionyl-5′-(S)—C-methyladenosine 5′-[1-naphthyl(isopropoxy-L-alaninyl)]phosphate]
EC50 (Hepatitis C virus, Huh-7, 72 h): < 1 µM

CC(C)OC(=O)[C@H](C)NP(=O)(Oc1cccc2ccccc12)O[C@@H](C)[C@H]1O[C@@H](n2cnc3c(N)ncnc32)[C@@H]2OC(=O)O[C@@H]21 (stereo partly drawn) [A23, 2′,3′-O-carbonyl-5(S)—C-methyladenosine 5′-[1-naphthyl(isopropoxy-L-alaninyl)]phosphate]
EC50 (Hepatitis C virus, Huh-7, 72 h): < 1 µM

CC[C@H](OP(=O)(N[C@@H](C)C(=O)OC(C)C)Oc1ccccc1)[C@H]1O[C@@H](n2cnc3c(N)ncnc32)[C@H](O)[C@@H]1O (stereo partly drawn) [A24, 5′(S)—C-ethyladenosine 5′-[phenyl(isopropoxy-L-alaninyl)]phosphate]
EC50 (Hepatitis C virus, Huh-7, 72 h): < 100 µM

CC[C@@H](OP(=O)(N[C@@H](C)C(=O)OC(C)C)Oc1ccccc1)[C@H]1O[C@@H](n2cnc3c(N)ncnc32)[C@H](O)[C@@H]1O (stereo partly drawn) [A25, 5′(R)—C-ethyladenosine 5′-[phenyl(isopropoxy-L-alaninyl)]phosphate]
EC50 (Hepatitis C virus, Huh-7, 72 h): < 1000 µM

CC(C)OC(=O)[C@H](C)NP(=O)(Oc1ccccc1)O[C@H]([C@H]1O[C@@H](n2cnc3c(N)ncnc32)[C@H](O)[C@@H]1O)C(F)(F)F (stereo partly drawn) [A26, 5′(S)—C-trifluoromethyladenosine 5′-[phenyl(isopropoxy-L-alaninyl)]phosphate]
EC50 (Hepatitis C virus, Huh-7, 72 h): < 100 µM

CC(C)OC(=O)[C@H](C)NP(=O)(Oc1ccccc1)O[C@@H]([C@H]1O[C@@H](n2cnc3c(N)ncnc32)[C@H](O)[C@@H]1O)C(F)(F)F (stereo partly drawn) [A27, 5′(R)—C-trifluoromethyladenosine 5′-[phenyl(isopropoxy-L-alaninyl)]phosphate]
EC50 (Hepatitis C virus, Huh-7, 72 h): < 30 µM

CC(NP(=O)(Oc1ccccc1Cl)OC(C)C1OC(n2cnc3c(N)ncnc32)[C@H](O)[C@@H]1O)C(=O)OC1CCCCC1 (stereo partly drawn) [A28, 5′(S)—C-methyladenosine 5′-[2-chlorophenyl(cyclohexoxy-L-alaninyl)]phosphate]
EC50 (Hepatitis C virus, Huh-7, 72 h): < 1 µM

C[C@H](NP(=O)(Oc1ccc(F)c(Cl)c1)O[C@@H](C)[C@H]1O[C@@H](n2cnc3c(N)ncnc32)[C@H](O)[C@@H]1O)C(=O)OC1CCCCC1 (some centres unmarked) [A29]
EC50 (Hepatitis C virus, Huh-7, 72 h): < 1 µM

Cc1ccc(OP(=O)(N[C@@H](C)C(=O)OC2CCCCC2)O[C@@H](C)[C@H]2O[C@@H](n3cnc4c(N)ncnc43)[C@H](O)[C@@H]2O)cc1 (some centres unmarked) [A30]
EC50 (Hepatitis C virus, Huh-7, 72 h): < 1 µM

C[C@H](NP(=O)(Oc1ccc(Cl)cc1)O[C@@H](C)[C@H]1O[C@@H](n2cnc3c(N)ncnc32)[C@H](O)[C@@H]1O)C(=O)OC1CCCCC1 (some centres unmarked) [A32]
EC50 (Hepatitis C virus, Huh-7, 72 h): < 1 µM

COc1ccc(OP(=O)(N[C@@H](C)C(=O)OC2CCCCC2)O[C@@H](C)[C@H]2O[C@@H](n3cnc4c(N)ncnc43)[C@H](O)[C@@H]2O)cc1 (some centres unmarked) [A33]
EC50 (Hepatitis C virus, Huh-7, 72 h): < 1 µM

CC[C@H](NP(=O)(Oc1ccccc1)O[C@@H](C)[C@H]1O[C@@H](n2cnc3c(N)ncnc32)[C@H](O)[C@@H]1O)C(=O)OC1CCCCC1 (some centres unmarked) [A34]
EC50 (Hepatitis C virus, Huh-7, 72 h): < 1 µM

C[C@H](NP(=O)(Oc1cccnc1)O[C@@H](C)[C@H]1O[C@@H](n2cnc3c(N)ncnc32)[C@H](O)[C@@H]1O)C(=O)OC1CCCCC1 (some centres unmarked) [A36]
EC50 (Hepatitis C virus, Huh-7, 72 h): < 30 µM

Cc1ccccc1OP(=O)(N[C@@H](C)C(=O)OC1CCCCC1)O[C@@H](C)[C@H]1O[C@@H](n2cnc3c(N)ncnc32)[C@H](O)[C@@H]1O (some centres unmarked) [A37]
EC50 (Hepatitis C virus, Huh-7, 72 h): < 1 µM

CCC[C@H](NP(=O)(Oc1ccccc1)O[C@@H](C)[C@H]1O[C@@H](n2cnc3c(N)ncnc32)[C@H](O)[C@@H]1O)C(=O)OC1CCCCC1 (some centres unmarked) [A38]
EC50 (Hepatitis C virus, Huh-7, 72 h): < 1 µM

CC(C)[C@H](NP(=O)(Oc1ccccc1)O[C@@H](C)[C@H]1O[C@@H](n2cnc3c(N)ncnc32)[C@H](O)[C@@H]1O)C(=O)OC1CCCCC1 (some centres unmarked) [A39]
EC50 (Hepatitis C virus, Huh-7, 72 h): < 1 µM

CC(C)C[C@H](NP(=O)(Oc1ccccc1)O[C@@H](C)[C@H]1O[C@@H](n2cnc3c(N)ncnc32)[C@H](O)[C@@H]1O)C(=O)OC1CCCCC1 (some centres unmarked) [A40]
EC50 (Hepatitis C virus, Huh-7, 72 h): < 1 µM

CSCC[C@H](NP(=O)(Oc1ccccc1)O[C@@H](C)[C@H]1O[C@@H](n2cnc3c(N)ncnc32)[C@H](O)[C@@H]1O)C(=O)OC1CCCCC1 (some centres unmarked) [A41]
EC50 (Hepatitis C virus, Huh-7, 72 h): < 1 µM

C[C@H](OP(=O)(N[C@@H](Cc1ccccc1)C(=O)OC1CCCCC1)Oc1ccccc1)[C@H]1O[C@@H](n2cnc3c(N)ncnc32)[C@H](O)[C@@H]1O (some centres unmarked) [A42]
EC50 (Hepatitis C virus, Huh-7, 72 h): < 30 µM

C[C@H](OP(=O)(NCC(=O)OC1CCCCC1)Oc1ccccc1)[C@H]1O[C@@H](n2cnc3c(N)ncnc32)[C@H](O)[C@@H]1O (some centres unmarked) [A43]
EC50 (Hepatitis C virus, Huh-7, 72 h): < 1 µM

CC(C)OC(=O)[C@H](C)NP(=O)(Oc1cccc2ccccc12)O[C@@H](C)[C@H]1O[C@@H](n2ccc(N)nc2=O)[C@H](O)[C@@H]1O (stereo partly drawn) [C2, 5′(S)—C-methylcytidine-[naphthyl(isopropoxy-L-alaninyl)]phosphate]
EC50 (Hepatitis C virus, Huh-7, 72 h): < 100 µM

COC(=O)[C@H](C)NP(=O)(Oc1ccccc1)O[C@@H](C)[C@H]1O[C@@H](n2ccc(N)nc2=O)[C@H](O)[C@@H]1O (stereo partly drawn) [C6, 5′(S)—C-Methylcytidine 5′-[phenyl(methoxy-L-alaninyl)]phosphate]
EC50 (Hepatitis C virus, Huh-7, 72 h): < 100 µM

CC(C)OC(=O)[C@H](C)NP(=O)(Oc1ccccc1)O[C@@H](C)[C@H]1O[C@@H](n2ccc(N)nc2=O)[C@H](O)[C@@H]1O (stereo partly drawn) [C8, 5′(S)—C-methylcytidine 5′-[phenyl(isopropoxy-L-alaninyl)]phosphate]
EC50 (Hepatitis C virus, Huh-7, 72 h): < 100 µM

COC(=O)[C@H](C)NP(=O)(Oc1ccccc1)O[C@H](C)[C@H]1O[C@@H](n2ccc(=O)[nH]c2=O)[C@@H](O)[C@@H]1O (stereo partly drawn) [D1, 5′(R)—C-methylarabinouridine 5′-[phenyl(methoxy-L-alaninyl)]phosphate]
EC50 (Hepatitis C virus, Huh-7, 72 h): < 1000 µM

COC(=O)[C@H](C)NP(=O)(Oc1ccccc1)O[C@@H](C)[C@H]1O[C@@H](n2ccc(=O)[nH]c2=O)[C@@H](O)[C@@H]1O (stereo partly drawn) [D2, 5′ (S)—C-methylarabinouridine 5′-[phenyl(methoxy-L-alaninyl)]phosphate]
EC50 (Hepatitis C virus, Huh-7, 72 h): < 1000 µM

CC(C)OC(=O)[C@H](C)NP(=O)(Oc1ccccc1)O[C@@H](C)[C@H]1O[C@@H](n2cnc3c(N)nc(N)nc32)[C@H](O)[C@@H]1O (stereo partly drawn) [E1, 1-(2,6-diaminopurin-9-yl)-5(S)—C-methyl-β-D-ribofuranose 5-[phenyl(isopropoxy-L-alaninyl)]phosphate]
EC50 (Hepatitis C virus, Huh-7, 72 h): < 30 µM

COC(=O)[C@@H](C)NP(=O)(Oc1ccccc1)O[C@@H](C)[C@H]1O[C@@H](n2cnc3c(N)ncnc32)[C@](C)(O)[C@@H]1O (some centres unmarked) [drawing 355]
EC50 (Hepatitis C virus, Huh-7, 72 h): 30 to 200 µM

COC(=O)[C@@H](C)NP(=O)(Oc1ccccc1)O[C@@H](C)[C@H]1O[C@@H](n2cnc3c(N)ncnc32)[C@](C)(O)[C@@H]1O (some centres unmarked) [drawing 364]
EC50 (Table 9, Huh-7 HCV replicon cells, luciferase, 72 hours): 30 to 200 µM
